In PubChem BioAssay (NCI) one finds GI50 and TGI data, which are given here for twelve compounds.

Some test systems named below: HCC-2998 colon; HOP-62 NSCLC; HT29 colon; OVCAR-3 ovarian; SF-539 CNS; SK-MEL-5 melanoma; SK-OV-3 ovarian; U251 CNS; CAKI-1 renal; SNB-75 CNS.
What all share (test): NCI tumour cell line growth inhibition, 48 h

Molecules are shown by their SMILES.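 Tested at 5 concentrations; 48 h exposure; 96-well plates; endpoints linearly interpolated, else capped at highest concentration. GI50 = concentration required for 50% inhibition of growth. Definition used: TGI = concentration required for complete inhibition of growth.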 Where only a bound is given, the exact number is not on record here.

On to `CC(C)=CCCC1(C)C=Cc2c(ccc3c2[nH]c2cc(O)c(C)cc23)O1` (stereo not given), for which the GI50 in the test with HCC-2998 colon is 4.63 µM; in the test with HOP-62 NSCLC, 4.74 µM; with HT29 colon it was 4.9 µM; in the test with SF-539 CNS, 4.59 µM; in the test with SK-MEL-5 melanoma, 4.85 µM; with U251 CNS, 4.53 µM. Further, the TGI in the test with HCC-2998 colon was determined as 8.86 µM; in the test with HOP-62 NSCLC it was 8.71 µM; in the test with HT29 colon, 10.5 µM; with OVCAR-3 ovarian, 9.07 µM; in the test on SF-539 CNS it was 9.78 µM; in the test with SK-MEL-5 melanoma, 9.31 µM. Moreover, the TGI was > 2.5 µM in the test on SK-OV-3 ovarian and 8.03 µM in the test with U251 CNS.

As for `c1ccc2c(Nc3ccc4c(c3)OCO4)c3ccoc3nc2c1`, the GI50 in the test on CAKI-1 renal is 12.3 µM; with HCC-2998 colon it was 12.5 µM; in the test with HOP-62 NSCLC it was 15.4 µM; in the test with OVCAR-3 ovarian, 15.5 µM; with SK-MEL-5 melanoma it was 8.85 µM; in the test with SK-OV-3 ovarian, 22.7 µM. For the same compound, the GI50 in the test on U251 CNS is 17.6 µM. Further, the TGI in the test with CAKI-1 renal came to 33.3 µM; in the test with HCC-2998 colon, 29.6 µM; with HOP-62 NSCLC it was 32.3 µM; in the test with OVCAR-3 ovarian, 36.6 µM; in the test with SK-MEL-5 melanoma, 31.2 µM; in the test with SK-OV-3 ovarian it was 99.7 µM. The compound also gave a TGI in the test on U251 CNS of 41.3 µM.

For `S=C1NC2=C(CCOc3c2ccc2ccccc32)C(c2ccc(Cl)cc2)N1` (stereo not given), the GI50 in the test with CAKI-1 renal is 32.5 µM; in the test with HOP-62 NSCLC it was 70.8 µM; in the test on HT29 colon it was 33.5 µM; with OVCAR-3 ovarian, 20.9 µM; in the test on SF-539 CNS, 20.8 µM; in the test on SK-MEL-5 melanoma, 20 µM. Moreover, the GI50 in the test on SK-OV-3 ovarian is > 100 µM; in the test on SNB-75 CNS, 84 µM; with U251 CNS, 35.5 µM. Also, the TGI in the test on CAKI-1 renal was 72.5 µM; in the test with HOP-62 NSCLC, > 100 µM; in the test with HT29 colon, > 100 µM; in the test with OVCAR-3 ovarian, 70.6 µM; in the test on SF-539 CNS, 56.9 µM; in the test with SK-MEL-5 melanoma, 44.9 µM. Moreover, the TGI with SK-OV-3 ovarian, in the test on SNB-75 CNS and with U251 CNS was > 100 µM in each case.

With `CN(C)/C=C/C(=O)c1cccc(C(=O)/C=C/N(C)C)n1`, the TGI in the test on HCC-2998 colon, in the test with HOP-62 NSCLC, in the test on HT29 colon, in the test with OVCAR-3 ovarian, in the test on SF-539 CNS and in the test with SK-MEL-5 melanoma was > 100 µM each time. Also, the TGI with SK-OV-3 ovarian, with SNB-75 CNS and with U251 CNS was > 100 µM in each case.

With `Cc1cccc(Cc2cnc(NC(=O)/C=C/c3ccco3)s2)c1`, the GI50 with CAKI-1 renal was 0.0459 µM; in the test on HCC-2998 colon, 0.135 µM; in the test with HOP-62 NSCLC, 0.0535 µM; in the test with HT29 colon it was 0.0373 µM; in the test on OVCAR-3 ovarian, 0.0312 µM; in the test with SF-539 CNS, 0.026 µM. The GI50 with SK-MEL-5 melanoma was 0.0354 µM; in the test on SK-OV-3 ovarian, 0.0465 µM; in the test on U251 CNS it was 0.0396 µM. The TGI in the test with CAKI-1 renal was > 100 µM; in the test with HCC-2998 colon, > 100 µM; in the test with HOP-62 NSCLC, > 100 µM; in the test with HT29 colon, > 100 µM; in the test with OVCAR-3 ovarian, 0.0914 µM; in the test on SF-539 CNS, 0.0752 µM. The TGI with SK-MEL-5 melanoma was 3.36 µM; in the test with SK-OV-3 ovarian it was > 100 µM; with U251 CNS it was > 100 µM.

Regarding `COc1cccc(C2N3CCCCC3[C@@H]3c4[nH]c5ccccc5c4CCN23)c1OC` (stereo not given in full), the TGI with CAKI-1 renal was found to be 33.5 µM; with HOP-62 NSCLC, 29.4 µM; in the test with HT29 colon, 25.5 µM; in the test on OVCAR-3 ovarian it was 25.9 µM; in the test on SF-539 CNS it was 28.5 µM; in the test on SK-MEL-5 melanoma, 30.6 µM. For the same compound, the results for the TGI in the test on SK-OV-3 ovarian and in the test on U251 CNS were 31.4 µM and 30.9 µM, respectively.

For `Clc1cc(-c2csc(Cl)c2)cs1`, the TGI in the test with CAKI-1 renal, in the test with HT29 colon, in the test with OVCAR-3 ovarian, in the test on SF-539 CNS, with SK-MEL-5 melanoma and in the test with SNB-75 CNS was > 100 µM each time. Besides, the TGI in the test with U251 CNS was > 100 µM.

Turning to `Cn1cc(C2=C(c3cn(C)c4cc(Cl)ccc34)C(=O)NC2=O)c2ccccc21`, the GI50 in the test on HCC-2998 colon is 0.203 µM; in the test with HOP-62 NSCLC, 0.124 µM; in the test on HT29 colon, 0.0928 µM; in the test on OVCAR-3 ovarian, 0.0653 µM; with SF-539 CNS, 0.0556 µM; with SK-MEL-5 melanoma, 0.102 µM. The GI50 is 0.101 µM with SK-OV-3 ovarian, 0.0893 µM in the test with SNB-75 CNS and 0.0988 µM with U251 CNS. Also, the TGI in the test on HCC-2998 colon was > 11.7 µM; with HOP-62 NSCLC it was > 25 µM; in the test on HT29 colon, > 9.62 µM; in the test with OVCAR-3 ovarian, 0.154 µM; with SF-539 CNS, 0.141 µM; in the test on SK-MEL-5 melanoma, 2.39 µM. Further, the TGI with SK-OV-3 ovarian, in the test with SNB-75 CNS and in the test with U251 CNS was > 25 µM each time.

Take `C/C(CC(=O)Nc1cc(Cl)c(Cl)cc1Cl)=N\NS(=O)(=O)c1ccc(C)cc1`: the TGI in the test on HCC-2998 colon is 86.5 µM; in the test with HOP-62 NSCLC, > 100 µM; in the test on HT29 colon, > 100 µM; in the test on OVCAR-3 ovarian, 74.7 µM; in the test on SF-539 CNS it was 85.8 µM; in the test with SK-MEL-5 melanoma it was > 100 µM. Further, the TGI in the test on SK-OV-3 ovarian, with SNB-75 CNS and with U251 CNS was > 100 µM each time.

`CC(C(=O)C(C)O[Si](c1ccccc1)(c1ccccc1)C(C)(C)C)=P(c1ccccc1)(c1ccccc1)c1ccccc1` (stereo not given): the TGI in the test with HCC-2998 colon stood at 12.3 µM; in the test on HOP-62 NSCLC it was 9.23 µM; in the test on HT29 colon, 11.5 µM; in the test on OVCAR-3 ovarian, 9.38 µM; in the test on SF-539 CNS, 13.4 µM; in the test on SK-MEL-5 melanoma it was 8.12 µM. Besides, the figures for the TGI in the test with SK-OV-3 ovarian, in the test with SNB-75 CNS and in the test on U251 CNS were 6.81 µM, 8.11 µM and 14.1 µM, respectively.

Regarding `O=C1CCC(=O)C(C(=O)CCC(=O)Nc2ccc(Cl)cc2)C1` (stereo not given), the TGI in the test on CAKI-1 renal, with HCC-2998 colon, with HT29 colon, in the test with OVCAR-3 ovarian, in the test on SF-539 CNS and with SK-MEL-5 melanoma was > 100 µM throughout. In addition, the TGI in the test on SK-OV-3 ovarian and with U251 CNS was > 100 µM each time.

In the case of `COc1cc2ccc(C(=O)O)cc2cc1OC`, the TGI with HOP-62 NSCLC, with HT29 colon, in the test on OVCAR-3 ovarian, in the test with SF-539 CNS, with SK-MEL-5 melanoma and with SK-OV-3 ovarian was > 100 µM in each case. Also, the TGI with SNB-75 CNS and with U251 CNS was > 100 µM each time.
